Results reported in patent US20240082296A1, “TREATMENT OF MUSCLE ATROPHY USING DEXTRAN SULFATE” (TX MEDIC AB, priority 2020, published 2024).

Tested on: patients with ALS
Assay: clinical observation of muscle function (ALSFRS-R) in ALS patients (Example 2)
Assay type: in vivo, human
Conditions: during the five-week treatment period; 1 mg/kg s.c. weekly
Procedure: A clinical trial in the form of a Phase IIa, single-center, open label, single-arm study where the safety, tolerability and possible efficacy of subcutaneously administered dextran sulfate was evaluated in patients with ALS of intermediate progression rate. The clinical trial was conducted at the Sahlgrenska University Hospital, Gothenburg, Sweden and was overseen and approved by the Ethics Committee of the University of Gothenburg and by the Swedish Medical Products Agency.
Dextran sulfate (Tikomed AB, Viken, Sweden, WO 2016/076780) was administered at 1 mg/kg by […] subcutaneous injection once a week for five weeks to 13 human patients suffering from ALS.
ALSFRS-R was assessed pre-treatment and weekly thereafter for the 5 treatment weeks and for the visits at the follow-up period.
The biochemical evidence of reduced muscle degeneration supports the clinical observations of improved muscle function. For example, in the ALSFRS-R, functions mediated by cervical, trunk, lumbosacral, and respiratory muscles are each assessed by 3 items and scores in these categories show close agreement with objective measures of muscle strength.

Substance: dextran sulfate
- severe bulbar paresis in two patients: almost complete resolution
